Measurements taken from US5900488A, “Method for treating mycosis using imidazolylacetonitrile derivatives” (Nihon Nohyaku Co., Ltd., priority 1995, dated 1999).
Converted amounts (≈) assume the structure as drawn. “Also recorded” adds a separate entry of the source. Like-named read-outs stand apart in the source and are kept apart here.

How the values were obtained:
[1] = system: Trichophyton mentagrophytes; test: In vitro activity against Trichophyton mentagrophytes, MIC by twofold macro-broth dilution (Test Example 1); format: cell-based; conditions: for MIC: Trichophyton mentagrophytes, 7 days at 27° C.
Method: (§1) Minimum inhibitory concentrations (MICs) were determined by the twofold macro-broth dilution method with Sabouraud's glucose broth which constituted with 1% bactopeptone and 4% glucose. To each tube containing 9.8 ml of the broth, 0.1 ml of each testing compound dissolved in DMSO and 0.1 ml of a conidial suspension (1×10^6 conidia/ml) were added. The fungal growth was observed after incubation for 7 days at 27° C. The MIC was determined as the lowest drug concentration which prevented a visible fungal growth.

Trichophyton rubrum = test: In vitro activity against Trichophyton rubrum, MIC by twofold macro-broth dilution (Test Example 1); format: cell-based
Method: as §1

[2] = system: trichophyton mentagrophytes TIMM 2789; test: Therapeutic efficacy on experimental tinea pedis in guinea pigs (Test Example 2); format: in vivo
Method: Male Hartley guinea pigs (Japan SLC Inc.) weighing 400 to 620 g were used for the infection study. One side of a paper disc (1.5 mm thick×8 mm diameter) was covered with a piece of aluminum foil while the other side was free to carry the inoculum suspension. The disc was immersed with 50 μl of the inoculum suspension (trichophyton mentagrophytes TIMM 2789, 1×10^8 conidia/ml), and was then fixed on the planta pedis of animal feet with an adhesive elastic tape. The disc was removed on the seventh day postinfection. Each agent dissolved in PEG 400 (0.1 ml/locus) was topically applied to the whole soles of guinea pigs once a day for 3 consecutive days, starting on the 10th day postinfection. Five days after the last treatment, the skin tissue from each planta pedis and the corresponding tarsus of all animals was cut into small blocks (about 2×2 mm). Ten skin blocks obtained from each part of the foot were implanted on a Sabouraud's glucose agar plate containing antibiotics, and were cultured at 27° C. for 14 days. The skin blocks yielding fungal growth were regarded as culture-positive, and the foot (planta pedis plus tarsus) with more than one culture-positive skin block was considered fungus-positive. In addition, the intensity of infection was assessed by the scores based on the number of culture-positive skin blocks. Namely, +10, +9, +8, +7, +6, +5, +4, +3, +2, +1 or 0 was given as the score according to the corresponding number of culture-positive skin blocks out of ten skin blocks studied. Statistical analyses for the rate of fungus-positive feet and the average intensity of infection were assessed by Fisher's exact probably test and Mann-Whitney's U-test, respectively.

Candida albicans = test: In vitro antifungal activity against Candida albicans, MIC by twofold micro-broth dilution (Test Example 3); format: cell-based; conditions: 48 hours at 35° C., pH 7.0, read-out: MIC
Method: MICs were determined by the twofold micro-broth dilution method with RPMI 1640 buffered with morphorino-propanesulfonic acid to a final molarity of 0.165M (pH 7.0). One hundred μl of a yeast cell suspension (1 to 5×10^3 cells/ml) and 100 μl of the compound-containing medium were pipetted into each well flat-bottomed microtiter plates. After incubation for 48 hours at 35° C., the turbidity of each well was measured at 630 nm.

Aspergillus fumigatus = test: In vitro antifungal activity against Aspergillus fumigatus, MIC by twofold agar dilution (Test Example 4); format: cell-based; conditions: read-out: MIC
Method: MICs were determined by the twofold agar dilution method with casitone agar which constituted with 0.9% bactocasitone, 1% bacto-yeast extract, 2% glucose, 0.1% KH2 PO4, 0.1% Na2 HPO4, 1% Na3 C6 H5 O7 and 1.6% agar. A loopful of each inoculum (1×10^6 conidia/ml) was streaked onto the agar plate containing a compound, and a fungal growth was observed after incubation for 48 hours at 35° C. The MIC was determined as the lowest drug concentration which prevented a visible fungal growth.

dermatophytes = test: Antifungal activity against dermatophytes compared with racemic mixtures (general statement); conditions: especially highly sensitive strains
[3] = 0.5% in PEG 400, topical once a day for 3 days, p < 0.01 vs untreated and PEG 400 control
[4] = 1% in PEG 400, topical once a day for 3 days, p < 0.01 vs untreated and PEG 400, Compound (A) also p < 0.05 vs 1% Racemic Compound (A)
[5] = 1% in PEG 400, topical once a day for 3 days, p < 0.01 vs untreated and PEG 400 control

- MIC ([1]; IFO5466, 168 h, strain IFO 5466): 20 ng/mL (≈ 0.0625 µM)
- MIC ([1]; IFO5809, 168 h, strain IFO 5809): 5 ng/mL (≈ 0.0156 µM)
- MIC ([1]; IFO5810, 168 h, strain IFO 5810): 5 ng/mL (≈ 0.0156 µM)
- MIC ([1]; IFO5811, 168 h, strain IFO 5811): 20 ng/mL (≈ 0.0625 µM)
- MIC ([1]; IFO5929, 168 h, strain IFO 5929): 10 ng/mL (≈ 0.0313 µM)
- MIC ([1]; TIMM1189, 168 h, strain TIMM 1189): 10 ng/mL (≈ 0.0313 µM)
- MIC ([1]; TIMM1814, 168 h, strain TIMM 1814): 20 ng/mL (≈ 0.0625 µM)
- MIC ([1]; TIMM1815, 168 h, strain TIMM 1815): 20 ng/mL (≈ 0.0625 µM)
- MIC ([1]; TIMM1817, 168 h, strain TIMM 1817): 20 ng/mL (≈ 0.0625 µM)
- MIC ([1]; TIMM2789, 168 h, strain TIMM 2789): 5 ng/mL (≈ 0.0156 µM)
- MIC (Trichophyton rubrum; IFO5467, 168 h, strain IFO 5467, 7 days at 27° C.): 1.3 ng/mL (≈ 0.00406 µM)
- MIC (Trichophyton rubrum; IFO5807, 168 h, strain IFO 5807, 7 days at 27° C.): 2.5 ng/mL (≈ 0.00782 µM)
- MIC (Trichophyton rubrum; IFO5808, 168 h, strain IFO 5808, 7 days at 27° C.): 2.5 ng/mL (≈ 0.00782 µM)
- MIC (Trichophyton rubrum; IFO6203, 168 h, strain IFO 6203, 7 days at 27° C.): 2.5 ng/mL (≈ 0.00782 µM)
- MIC (Trichophyton rubrum; IFO6204, 168 h, strain IFO 6204, 7 days at 27° C.): 2.5 ng/mL (≈ 0.00782 µM)
- MIC (Trichophyton rubrum; IFO9185, 168 h, strain IFO 9185, 7 days at 27° C.): 1.3 ng/mL (≈ 0.00406 µM)
- MIC (Trichophyton rubrum; TIMM1822, 168 h, strain TIMM 1822, 7 days at 27° C.): 1.3 ng/mL (≈ 0.00406 µM)
- MIC (Trichophyton rubrum; TIMM1823, 168 h, strain TIMM 1823, 7 days at 27° C.): 2.5 ng/mL (≈ 0.00782 µM)
- MIC (Trichophyton rubrum; TIMM1824, 168 h, strain TIMM 1824, 7 days at 27° C.): 1.3 ng/mL (≈ 0.00406 µM)
- MIC (Trichophyton rubrum; TIMM1830, 168 h, strain TIMM 1830, 7 days at 27° C.): 0.63 ng/mL (≈ 0.00197 µM)
- MIC (Candida albicans; IFO0197, strain IFO 0197, 80% inhibition): 62.5 ng/mL (≈ 0.195 µM)
- MIC (Candida albicans; IFO0579, strain IFO 0579, 80% inhibition): 31.3 ng/mL (≈ 0.0979 µM)
- MIC (Candida albicans; IFO1269, strain IFO 1269, 80% inhibition): 62.5 ng/mL (≈ 0.195 µM)
- MIC (Candida albicans; IFO1270, strain IFO 1270, 80% inhibition): 250 ng/mL (≈ 0.782 µM)
- MIC (Candida albicans; IFO1385, strain IFO 1385, 80% inhibition): 62.5 ng/mL (≈ 0.195 µM)
- MIC (Candida albicans; IFO1386, strain IFO 1386, 80% inhibition): 125 ng/mL (≈ 0.391 µM)
- MIC (Candida albicans; TIMM3163, strain TIMM 3163, 80% inhibition): 4000 ng/mL (≈ 12.5 µM)
- MIC (Candida albicans; TIMM3164, strain TIMM 3164, 80% inhibition): 250 ng/mL (≈ 0.782 µM)
- MIC (Candida albicans; TIMM3165, strain TIMM 3165, 80% inhibition): 2000 ng/mL (≈ 6.25 µM)
- MIC (Candida albicans; TIMM3166, strain TIMM 3166, 80% inhibition): 1000 ng/mL (≈ 3.13 µM)
- MIC (Aspergillus fumigatus; TIMM0063, strain TIMM 0063, 48 hours at 35° C.): 0.63 ng/mL (≈ 0.00197 µM)
- MIC (Aspergillus fumigatus; TIMM0078, strain TIMM 0078, 48 hours at 35° C.): 0.63 ng/mL (≈ 0.00197 µM)
- MIC (Aspergillus fumigatus; TIMM1728, strain TIMM 1728, 48 hours at 35° C.): 1.3 ng/mL (≈ 0.00406 µM)
- MIC (Aspergillus fumigatus; TIMM1767, strain TIMM 1767, 48 hours at 35° C.): 1.3 ng/mL (≈ 0.00406 µM)
SMILES: N#C/C(=C1/SC[C@@H](c2ccccc2Cl)S1)n1ccnc1 [Compound (A), R-(+)-(E)-[4-(2-chlorophenyl)-1,3-dithiolan-2-ylidene]-1-imidazolylacetonitrile]
- in vitro antifungal activity relative to Racemic Compound (A) ([1]; MIC for T. mentagrophytes TIMM 2789): 4 times
- sensitivity (in words) (Trichophyton rubrum): highly sensitive
- effect relative to 1% Racemic Compound (A) ([2]; 0.5% Compound (A) vs 1% Racemic Compound (A)): twice; also recorded: more than twice
- Average intensity of infection, planta pedis (score 0 to +10) [2, 3]: +0.3
- Average intensity of infection, tarsus (score 0 to +10) [2, 3]: 0
- Fungus-positive rate (%) [2, 3]: 20%
- Fungus-positive rate: The number of positive feet/The total number of feet [2, 3]: 2/10
- Fungus-positive rate (%) [2, 4]: 0%
- Fungus-positive rate: The number of positive feet/The total number of feet [2, 4]: 0/10
- Average intensity of infection, planta pedis (score 0 to +10) [2, 5]: 0
- Average intensity of infection, tarsus (score 0 to +10) [2, 5]: 0
- curative effect (in words) ([2]; 1% treated group): mycologically complete healing
- curative effect compared with Racemic Compound (A) ([2]; at the same concentration): markedly higher
- antifungal activity relative to the racemic mixtures (dermatophytes): several times
